The results in this text go back to US10107817B2, “Oligopeptide specific to ovarian cancer, polynucleotide for encoding oligopeptide, test kit for detecting ovarian cancer and method for detecting ovarian cancer” (NATIONAL TSING HUA UNIVERSITY, priority 2016, dated 2018).

The subject of assay [1] is normal ovarian tissue section. In words: Binding of the FAM-labelled oligopeptide to control tissue section, fluorescence microscopy. Particulars: 60 rpm, 60 minutes, room temperature, FIG. 2. The source says: (§1) In subsequent examples, the oligopeptide of the present disclosure is used to detect whether the sample has the oligopeptide-cancer cell complex. The oligopeptide consisted of the amino acid sequence of SEQ ID NO: 1 is chemically synthesized and modified a green fluorescence (FAM) at N-terminus in subsequent examples.
(§2) The sample uses in this example is the ovarian cancer tissue including an ovarian serous tumor tissue section, an ovarian mucinous tumor tissue section and an ovarian clear cell carcinoma tissue section. Besides, a normal ovarian tissue section is used as a control. The oligopeptide modified with the green fluorescence is respectively mixed with different groups of the sample at 60 rpm for 60 minutes at room temperature. The samples are washed several times with PBS containing 1% BSA. Then the sample is observed under a fluorescence microscopy, wherein the green fluorescent signal represents that the oligopeptide-cancer cell complex is presented in the sample.

The subject of assay [2] is normal cervical epithelial cell. In words: Binding of the FAM-labelled oligopeptide to control cells, fluorescence microscopy. The following applies: 12-well plate, 1×10^5 cells/well, 60 rpm, 60 minutes, room temperature, FIG. 3.
From the text: as §1
(§3) The sample uses in this example is the ovarian cancer cell, wherein the ovarian cancer cell is OVCAR3 cell (a human serous epithelial ovarian cancer cell line). Besides, a normal cervical epithelial cell is used as the control. The OVCAR3 cell and the normal cervical epithelial cell are cultured and stored in Department of Obstetrics and Gynecology of National Cheng Kung University Hospital. The OVCAR3 cell and the normal cervical epithelial cell are respectively seeded in a 12-well plate with 1×10^5 cells/well and then maintained at 37° C. in a humidified atmosphere of 5% CO2 until the cells are adhered in the next day. The oligopeptide modified with the green fluorescence is respectively mixed with different groups of the sample at 60 rpm for 60 minutes at room temperature. The sample is washed several times with the PBS containing 1% BSA. Then the sample is observed under a fluorescence microscopy, wherein the green fluorescent signal represents that the oligopeptide-cancer cell complex is presented in the sample.

Assay [3] relates to ovarian mucinous tumor tissue section. Put plainly: Binding of the FAM-labelled oligopeptide to ovarian cancer tissue sections, fluorescence microscopy. Particulars: 60 rpm, 60 minutes, room temperature, FIG. 2.
From the text: as §1, §2

The subject of assay [4] is ovarian clear cell carcinoma tissue section. Described as above. Particulars: 60 rpm, 60 minutes, room temperature, FIG. 2.
From the text: as §1, §2

Assay [5] has as its system ovarian serous tumor tissue section. Described as above. Particulars: 60 rpm, 60 minutes, room temperature, FIG. 2.
From the text: as §1, §2

For the next assay, the system named is OVCAR3 cell. Put plainly: Binding of the FAM-labelled oligopeptide to ovarian cancer cells, fluorescence microscopy. The arrangement: species or system human. The following applies: 12-well plate, 1×10^5 cells/well, 60 rpm, 60 minutes, room temperature, FIG. 3.
From the text: as §1, §3

In the case of “oligopeptide of the present disclosure: oligopeptide consisted of the amino acid sequence of SEQ ID NO: 1, chemically synthesized, specific to ovarian cancer (KRLTPLSPDHYD)”, the “green fluorescent signal (oligopeptide-cancer cell complex)” value in assay [1] is given as “no significant green fluorescent signal detected”; in assay [3], “green fluorescent signal can be detected”; in assay [4] it was “green fluorescent signal can be detected”; in assay [5] it was “green fluorescent signal can be detected”. Further, the “FAM signal (oligopeptide-cancer cell complex)” value in assay [2] is given as “no significant FAM signal detected”; in the assay on OVCAR3 cell, “FAM signal can be detected”.
